# Source: publication PMC9386018, “A lymphatic-absorbed multi-targeted kinase inhibitor for myelofibrosis therapy” (Nature Communications, 2022)
# Several values for one entry are separate records, joined by “and”; a condition that tells them apart may be missing. Equal values may be shown once. Read-outs that look alike come from different tables or passages of the source.
# Legend:
# [1] = Compound quantitation in blood and mesenteric lymph nodes; format: in vivo, mouse; conditions: female, CD-1, mouse, mesenteric lymph nodes; mice, 30 min after oral 100-1000 mg kg^−1
# Method: Whole blood and mesenteric lymph nodes were collected either 30 min or 4 h following compound administration and stored at −20 °C until future processing and analysis by the University of Michigan Pharmacokinetics Core as above, or as outlined below, to determine compound concentrations in each tissue. […] Data was generated from n ≥ 4 individual animals per compound per study group or dose.
# Briefly, acetonitrile was added to a final concentration of 60–80% to bone marrow, whole blood, plasma, lymphatic fluid, lymphatic proteo-lipid sub-fractions, or mesenteric lymph node samples for compound extraction. Extraction was performed by shaking and/or bead rupture using a Precellys Evolution tissue homogenizer (Bertin Technologies SAS). […] Optimization of MS and MS/MS parameters for MRM quantitation and maximum sensitivity of individual compounds was performed using SCIEX Analyst software (AB Sciex). […] All LC-MS/MS acquisitions were performed with an independent standard curve for each group of analytes and for each individual run. All solvents utilized were of Optima LC-MS Grade (Fisher Scientific). Data was generated from n ≥ 2 individual animals per compound per study condition or dose.
# [2] = Bioavailability studies: recovery in feces and urine; format: in vivo, mouse; conditions: for LP-182 Recovered (mg) Feces / LP-182 Recovered (mg) Urine / Fa: individual replicates; for Fa: from Feces, read-out: LP-182 Bioavailability (%)
# Method: Seven groups of female CD-1 mice (n = 4 per dosing group) received a single oral dose of LP-182 at 0, 100, 200, 400, 600, 800 and 1000 mg kg^−1 solubilized in Maisine CC. […] Urine and fecal samples were collected over 24 h at 24, 48 and 72 h intervals using metabolic cages, and quantitation of LP-182 in each sample was determined by the University of Michigan Pharmacokinetics Core. Briefly, water was added to fecal samples at an average ratio of 2.5 ± 1.6 (w/w) water:feces to generate fecal homogenates using a tissue homogenizer (Omni International TH), then approximately 200 mg of homogenate was diluted 5-fold with 20% (v/v) acetonitrile in water prior to analysis. […] The cumulative amount of compound recovered over 72 h in feces and urine was determined from sample analyte concentrations provided by the core, then converted to percent recovered by normalization to the amount of compound administered. […] LP-182 dose (mg kg^−1):LP-182 administered (mg) is 100:2.7; 200:5.4; 400:10.8; 600:16.2; 800:21.6; 1000:27.0. Data was generated from n = 4 individual animals per compound dose.
structure (smiles),measurement,setting,value
"O=C(NOCCOCCOCCOCCC(=O)N1CCN(c2cnc3ccc(-c4cnc(Cl)c(NS(=O)(=O)c5ccc(F)cc5)c4)cc3n2)CC1)c1ccc(F)c(F)c1Nc1ccc(I)cc1F [LP-182, N-(2-(2-(2-(3-(4-(7-(6-chloro-5-((4-fluorophenyl)sulfonamido)pyridin-3-yl)quinoxalin-2-yl)piperazin-1-yl)-3-oxopropoxy)ethoxy)ethoxy)ethoxy)-3,4-difluoro-2-((2-fluoro-4-iodophenyl)amino)benzamide]",concentration at 30 min,[1],5 to 15 µM
same,LP-182 Recovered (mg) Feces,[2]; Dose 100 mg/kg,0.2704 mg and 0.2192 mg and 0.3774 mg and 0.8162 mg
same,LP-182 Recovered (mg) Feces,[2]; Dose 200 mg/kg,0.8447 mg and 0.5724 mg and 1.4803 mg and 1.5068 mg
same,LP-182 Recovered (mg) Feces,[2]; Dose 400 mg/kg,1.4042 mg and 2.0055 mg and 2.0997 mg and 2.356 mg
same,LP-182 Recovered (mg) Feces,[2]; Dose 600 mg/kg,3.3135 mg and 1.6755 mg and 3.7882 mg and 2.917 mg
same,LP-182 Recovered (mg) Feces,[2]; Dose 800 mg/kg,3.1521 mg and 5.2995 mg and 6.9935 mg and 3.8874 mg
same,LP-182 Recovered (mg) Feces,[2]; Dose 1000 mg/kg,3.5565 mg and 6.4352 mg and 5.241 mg and 6.6537 mg
same,LP-182 Recovered (mg) Urine,[2]; Dose 100 mg/kg,0.001008 mg and 1.367e-05 mg and 0.0001025 mg and 0.00204 mg
same,LP-182 Recovered (mg) Urine,[2]; Dose 200 mg/kg,4.24e-05 mg and 0.0002221 mg and 5.303e-05 mg and 0.0002304 mg
same,LP-182 Recovered (mg) Urine,[2]; Dose 400 mg/kg,0.0004111 mg and 0.000386 mg and 0.0002292 mg and 0.001169 mg
same,LP-182 Recovered (mg) Urine,[2]; Dose 600 mg/kg,0.00017 mg and 0.02442 mg and 0.000379 mg and 0.001062 mg
same,LP-182 Recovered (mg) Urine,[2]; Dose 800 mg/kg,2.655e-05 mg and 0.001833 mg and 0.0008829 mg and 0.0002937 mg
same,LP-182 Recovered (mg) Urine,[2]; Dose 1000 mg/kg,0.0001091 mg and 2.205e-05 mg and 2.702e-05 mg and 0.001664 mg
same,Fa,"[2]; female, CD-1, mouse, feces, oral, 200 mg/kg, Dose 200 mg/kg",84.4%
same,Fa,"[2]; female, CD-1, mouse, feces, oral, 400 mg/kg, Dose 400 mg/kg",87%
same,Fa,"[2]; female, CD-1, mouse, feces, oral, 600 mg/kg, Dose 600 mg/kg",79.5%
same,Fa,"[2]; female, CD-1, mouse, feces, oral, 800 mg/kg, Dose 800 mg/kg",85.4%
same,Fa,"[2]; female, CD-1, mouse, feces, oral, 1000 mg/kg, Dose 1000 mg/kg",86.8%
same,dose excreted at 24 h,"[2]; female, CD-1, mouse, mice, oral, feces collected after 24 h, read-out: recovery from fecal samples, % of total recovered",~95%
same,dose excreted at 48 h,"[2]; female, CD-1, mouse, mice, oral, feces collected after 48 h, read-out: recovery from fecal samples, % of total recovered",5%
same,Fa,"[2]; Dose 100 mg/kg, 100 mg/kg",90% and 91.9% and 86% and 69.8%
same,Fa,"[2]; Dose 200 mg/kg, 200 mg/kg",89.4% and 72.6% and 72.1%
same,Fa,"[2]; Dose 400 mg/kg, 400 mg/kg",81.4% and 80.6% and 78.2%
same,Fa,"[2]; Dose 600 mg/kg, 600 mg/kg",89.7% and 76.6% and 82%
same,Fa,"[2]; Dose 800 mg/kg, 800 mg/kg",75.5% and 67.6% and 82%
same,Fa,"[2]; Dose 1000 mg/kg, 1000 mg/kg",76.2% and 80.6% and 75.4%
same,dose-independent fecal excretion (% drug recovered) of intact compound,"[2]; mice, oral 100-1000 mg kg^−1, over 72 h",approximately 20%
same,amount recovered in the urine,"[2]; mice, oral, all time points (24, 48, 72 h)",negligible amounts
same,"oral bioavailability, lower threshold limit","[2]; mice, difference of administered and recovered in feces over 72 h",≥ 80%
